Test results from patent EP0108351A2, “Use of substituted malonic-acid derivatives as pesticides” (BAYER AG, priority 1982, dated 1984).

Legend:
Type in all cases: in vivo
Plutella maculipennis = test: Plutella test (cabbage leaves dipped, caterpillars placed on them); settings: cabbage leaves (Brassica oleracea) dipped; concentration and time not stated; compared with prior art
Text: Lösungsmittel: 3 Gewichtsteile Dimethylformamid Emulgator : -1 Gewichtsteil Alkylarylpolyglykolether
(§1) Zur Herstellung einer zweckmäßigen Wirkstoffzubereitung vermischt man 1 Gewichtsteil Wirkstoff mit der angegebenen Menge Lösungsmittel und der angegebenen Menge Emulgator und verdünnt das Konzentrat mit Wasser auf die gewünschte Konzentration.
Kohlblätter (Brassica oleracea) werden durch Tauchen in die Wirkstoffzubereitung der gewünschten Konzentration behandelt und mit Raupen der Kohlschabe (Plutella maculipennis) besetzt, solange die Blätter noch feucht sind.
Nach der gewünschten Zeit wird die Abtötung in % bestimmt. Dabei bedeutet 100 %, daß alle Raupen abgetötet wurden; 0 % bedeutet, daß keine Raupen abgetötet wurden.

Myzus pesicae = test: Limit concentration test / root-systemic action (Myzus); settings: compound mixed into soil, cabbage; leaves infested after 7 days, evaluated after 2 more days; concentration not given
Text: Testinsekt: Myzus pesicae Lösungsmittel: 3 Gewichtsteile Aceton Emulgator: 1 Gewichtsteil Alkylarylpolyglykolether
(§2) Zur Herstellung einer zweckmäßigen Wirkstoffzubereitung vermischt man 1 Gewichtsteil Wirkstoff mit der angegebenen Menge Lösungsmittel, gibt die angegebene Menge Emulgator zu und verdünnt das Konzentrat mit Wasser auf die gewünschte Konzentration.
Die Wirkstoffzubereitung wird innig mit Boden vermischt. Dabei spielt die Konzentration des Wirkstoffs in der Zubereitung praktisch keine Rolle, entscheidend ist allein die Wirkstoffgewichtsmenge pro Volumeneinheit Boden, welche in ppm (= mg/1) angegeben wird. Man füllt den behandelten Boden in Töpfe und bepflanzt diese mit Kohl (Brassica oleracea). Der Wirkstoff kann so von den Pflanzenwurzeln aus dem Boden aufgenommen und in die Blätter transportiert werden.
Für den Nachweis des wurzelsystemischen Effektes werden nach 7 Tagen ausschließlich die Blätter mit den obengenannten Testtieren besetzt. Nach weiteren 2 Tagen erfolgt die Auswertung durch Zählen oder Schätzen der toten Tiere. Aus den Abtötungszahlen wird die wurzelsystemische Wirkung des Wirkstoffs abgeleitet. Sie ist 100 %, wenn alle Testtiere abgetötet sind und 0 %, wenn noch genau so viele Testinsekten leben wie bei der unbehandelten Kontrolle.

Tetranychus urticae = test: Tetranychus test (resistant), infested bean plants dipped; settings: bean plants (Phaseolus vulgaris) dipped; all stages of mites; concentration and time not stated; compared with prior art
Text: Lösungsmittel: 3 Gewichtsteile Dimethylformamid Emulgator: . 1 Gewichtsteil Alkylarylpolyglykolether
as §1
Bohnenpflanzen (Phaseolus vulgaris), die stark von allen Entwicklungsstadien der gemeinen Spinnmilbe oder Bohnenspinnmilbe (Tetranychus urticae) befallen sind, werden durch Tauchen in die Wirkstoffzubereitung der gewünschten Konzentration behandelt.
Nach der gewünschten Zeit wird die Abtötung in % bestimmt. Dabei bedeutet 100 %, daß alle Spinnmilben abgetötet wurden; 0 % bedeutet, daß keine Spinnmilben abgetötet wurden.

[1] = tested on: Phorbia antiqua (im Boden); test: Limit concentration test / soil insects; settings: compound mixed into soil; insects added after 24 hours, evaluated after 2 to 7 more days; concentration not given
Text: Testinsekt: Phorbia antiqua (im Boden) Lösungsmittel: 3 Gewichtsteile Aceton Emulgator: 1 Gewichtsteil Alkylarylpolyglykolether
as §2
Die Wirkstoffzubereitung wird innig mit dem Boden vermischt. Dabei spielt die Konzentration des Wirkstoffs in der Zubereitung praktisch keine Rolle, entscheidend ist allein die Wirkstoffgewichtsmenge pro Volumeneinheit Boden, welche in ppm (= mg/1) angegeben wird. Man füllt den Boden in Töpfe und läßt diese bei Raumtemperatur stehen.
Nach 24 Stunden werden die Testtiere in den behandelten Boden gegeben und nach weiteren 2 bis 7 Tagen wird der Wirkungsgrad des Wirkstoffs durch Auszählen der toten und lebenden Testinsekten in % bestimmt, Der Wirkungsgrad ist 100 %, wenn alle Testinsekten abgetötet worden sind, er ist O %, wenn noch genau so viele Testinsekten leben wie bei der unbehandelten Kontrolle.

[2] = tested on: Lucilia cuprina res.-Larven; test: Test with Lucilia cuprina res. larvae; settings: Wirkstoffkonzentration 1000 ppm, after 24 hours, read-out: Abtötung
Description: Emulgator: 35 Gewichtsteile Ethylenglkolmonomethylether 35 Gewichtsteile Nonylphenolpolyglykolether
Zur Herstellung einer zweckmäßigen Wirkstoffzubereitung vermischt man drei Gewichtsteile Wirkstott mit sieben Gewichtsteilen des oben angegebenen Lösungsmittel-Gemisches und verdünnt das so erhaltene Konzentrat mit Wasser auf die jeweils gewünschte Konzentration.
Etwa 20 Lucilia cuprina res.-Larven werden in ein Teströhrchen gebracht, welches ca. 1 cm^2 Pferdefleisch und 0,5 ml der Wirkstoffzubereitung enthält. Nach 24 Stunden wird der Abtötungsgrad bestimmt.

`CC(=O)OC(C(N)=O)(C(N)=O)c1ccc(Cl)c(Cl)c1` [Beispiel 4, 3,4-Dichlorphenylacetoxymalonsäurediamid] was tested, and the “Wirksamkeit gegenüber dem Stand der Technik (Abtötung in %)” value (Plutella maculipennis) was “überlegene Wirksamkeit gegenüber dem Stand der Technik”.

For `NC(=O)C(O)(C(=O)[O-])c1ccccc1.[Na+]` (centres unmarked) [Beispiel 33, Mononatriumsalzes des Phenylhydroxymalonsäuremonoamids], the “wurzelsystemische Wirkung gegenüber dem Stand der Technik” value (Myzus pesicae) was “überlegene Wirkung gegenüber dem Stand der Technik”.

For `CNC(=O)C(O)(C(N)=O)c1ccccc1` (centres unmarked) [Beispiel 27, Phenylhydroxymalonsäureamidmethylamid], the “wurzelsystemische Wirkung gegenüber dem Stand der Technik” value (Myzus pesicae) was “überlegene Wirkung gegenüber dem Stand der Technik”.

`CC(=O)NC(=O)C(OC(=O)c1ccccc1)(C(=O)NC(C)=O)c1ccc(Cl)c(Cl)c1` [Beispiel 41, 3,4-Dichlorphenylbenzoyloxymalonsäurebisacetylamid] was tested, and the “Wirksamkeit gegenüber dem Stand der Technik (Abtötung in %)” value (Tetranychus urticae) was “überlegene Wirksamkeit gegenüber dem Stand der Technik” and the “Wirksamkeit gegenüber dem Stand der Technik (Abtötung in %)” value (Plutella maculipennis) was “überlegene Wirksamkeit gegenüber dem Stand der Technik”.

For `C[Si](C)(C)NC(=O)C(O[Si](C)(C)C)(C(=O)N[Si](C)(C)C)c1ccc(Cl)c(Cl)c1` [Beispiel 48], the “Wirksamkeit gegenüber dem Stand der Technik (Abtötung in %)” value (Tetranychus urticae) was “überlegene Wirksamkeit gegenüber dem Stand der Technik”, the “Wirksamkeit gegenüber dem Stand der Technik (Abtötung in %)” value (Plutella maculipennis) was “überlegene Wirksamkeit gegenüber dem Stand der Technik” and the “Wirkungsgrad gegenüber dem Stand der Technik” value [1] was “überlegene Wirkung gegenüber dem Stand der Technik”.

`CC(=O)NC(=O)C(OC(C)=O)(C(N)=O)c1ccc(Cl)c(Cl)c1` (centres unmarked) [Beispiel 39, 3,4-Dichlorphenylacetoxy-malonsäureamidacetylamid] was tested, and the “Wirksamkeit gegenüber dem Stand der Technik (Abtötung in %)” value (Tetranychus urticae) was “überlegene Wirksamkeit gegenüber dem Stand der Technik”, the “Wirksamkeit gegenüber dem Stand der Technik (Abtötung in %)” value (Plutella maculipennis) was “überlegene Wirksamkeit gegenüber dem Stand der Technik” and the “Wirkungsgrad gegenüber dem Stand der Technik” value [1] was “überlegene Wirkung gegenüber dem Stand der Technik”.

In the case of `NC(=O)C(OC(=O)c1ccccc1)(C(N)=O)c1ccc(Cl)c(Cl)c1` [Beispiel 3, 3,4-Dichlorphenylbenzoyloxymalonsäurediamid], the “Wirksamkeit gegenüber dem Stand der Technik (Abtötung in %)” value (Plutella maculipennis) is reported as “überlegene Wirksamkeit gegenüber dem Stand der Technik”.

With `CC(=O)NC(=O)C(OC(C)=O)(C(=O)NC(C)=O)c1ccc(Cl)c(Cl)c1` [Beispiel 40, 3,4-Dichlorphenyl-acetoxy-malonsäurebisacetylamid] the “Wirksamkeit gegenüber dem Stand der Technik (Abtötung in %)” value (Tetranychus urticae) was “überlegene Wirksamkeit gegenüber dem Stand der Technik”, the “Wirksamkeit gegenüber dem Stand der Technik (Abtötung in %)” value (Plutella maculipennis) was “überlegene Wirksamkeit gegenüber dem Stand der Technik” and the “Wirkungsgrad gegenüber dem Stand der Technik” value [1] was “überlegene Wirkung gegenüber dem Stand der Technik”.

In the case of `CC(=O)NC(=O)C(O)(C(N)=O)c1ccc(Cl)c(Cl)c1` (centres unmarked) [Beispiel 38a, 3,4-Dichlorphenylhydroxymalonsäureamidacetylamid], the “Wirksamkeit gegenüber dem Stand der Technik (Abtötung in %)” value (Plutella maculipennis) is reported as “überlegene Wirksamkeit gegenüber dem Stand der Technik” and the “Wirkungsgrad gegenüber dem Stand der Technik” value [1] is reported as “überlegene Wirkung gegenüber dem Stand der Technik”.

For `NC(=O)C(OSC(F)(Cl)Cl)(C(N)=O)c1ccc(Cl)c(Cl)c1` [Beispiel 36, 3,4-Dichlorphenyl-dichlorfluormethylsulfenyloxy-malonsäurediamid], the “Wirksamkeit gegenüber dem Stand der Technik (Abtötung in %)” value (Tetranychus urticae) was “überlegene Wirksamkeit gegenüber dem Stand der Technik” and the “Wirksamkeit gegenüber dem Stand der Technik (Abtötung in %)” value (Plutella maculipennis) was “überlegene Wirksamkeit gegenüber dem Stand der Technik”.

With `CNS(=O)(=O)OC(C(N)=O)(C(N)=O)c1ccc(Cl)c(Cl)c1` [Beispiel 5, 3,4-Dichlorphenylmethylsulfamoyloxymalonsäurediamid] the “Wirksamkeit gegenüber dem Stand der Technik (Abtötung in %)” value (Tetranychus urticae) was “überlegene Wirksamkeit gegenüber dem Stand der Technik” and the “Wirksamkeit gegenüber dem Stand der Technik (Abtötung in %)” value (Plutella maculipennis) was “überlegene Wirksamkeit gegenüber dem Stand der Technik”.

`NC(=O)C(OC(=O)c1ccccc1Cl)C(=O)Nc1ccc(Cl)c(Cl)c1` (centres unmarked) [Beispiel 2, 3,4-Dichlorphenyl-(2-chlorbenzoyloxy)-malonsäurediamid] was tested, and the “Wirksamkeit gegenüber dem Stand der Technik (Abtötung in %)” value (Plutella maculipennis) was “überlegene Wirksamkeit gegenüber dem Stand der Technik”.

`CC(C)(C)NC(=O)C(O)(C(=O)NC(C)(C)C)c1ccccc1` [Beispiel 52, Phenylhydroxymalonsäure-bis-tert.-butylamid] was tested, and the “wurzelsystemische Wirkung gegenüber dem Stand der Technik” value (Myzus pesicae) was “überlegene Wirkung gegenüber dem Stand der Technik”.

For `C[Si](C)(C)OC(C(N)=O)(C(N)=O)c1ccc(Cl)c(Cl)c1` [Beispiel 47, 2-(3,4-Dichlorphenyl)-2-trimethylsilyloxy-malonsäurediamid], the “Wirksamkeit gegenüber dem Stand der Technik (Abtötung in %)” value (Tetranychus urticae) was “überlegene Wirksamkeit gegenüber dem Stand der Technik”, the “wurzelsystemische Wirkung gegenüber dem Stand der Technik” value (Myzus pesicae) was “überlegene Wirkung gegenüber dem Stand der Technik” and the “Wirksamkeit gegenüber dem Stand der Technik (Abtötung in %)” value (Plutella maculipennis) was “überlegene Wirksamkeit gegenüber dem Stand der Technik”. The “Wirkungsgrad gegenüber dem Stand der Technik” value [1] was “überlegene Wirkung gegenüber dem Stand der Technik” and the mortality at 1000 µg/mL [2] was 100%.

`NC(=O)C(O)(C(=O)NC=O)c1ccc(Cl)c(Cl)c1` (centres unmarked) [Beispiel 37, 3,4-Dichlorphenylhydroxymalonsäureamidformylamid] was tested, and the “Wirksamkeit gegenüber dem Stand der Technik (Abtötung in %)” value (Tetranychus urticae) was “überlegene Wirksamkeit gegenüber dem Stand der Technik” and the “Wirksamkeit gegenüber dem Stand der Technik (Abtötung in %)” value (Plutella maculipennis) was “überlegene Wirksamkeit gegenüber dem Stand der Technik”.

In the case of `CC(=O)NC(=O)C(O)(C(N)=O)c1ccccc1` (centres unmarked) [Beispiel 38, Phenylhydroxymalonsäureamidacetylamid], the “Wirksamkeit gegenüber dem Stand der Technik (Abtötung in %)” value (Plutella maculipennis) is reported as “überlegene Wirksamkeit gegenüber dem Stand der Technik”.

`COC(C(N)=O)(C(N)=O)c1ccc(Cl)c(Cl)c1` [Beispiel 1, 2-(3,4-Dichlorphenyl)-2-methoxy-malonsäurediamid] was tested, and the “Wirksamkeit gegenüber dem Stand der Technik (Abtötung in %)” value (Tetranychus urticae) was “überlegene Wirksamkeit gegenüber dem Stand der Technik”, the “wurzelsystemische Wirkung gegenüber dem Stand der Technik” value (Myzus pesicae) was “überlegene Wirkung gegenüber dem Stand der Technik” and the “Wirksamkeit gegenüber dem Stand der Technik (Abtötung in %)” value (Plutella maculipennis) was “überlegene Wirksamkeit gegenüber dem Stand der Technik”. For the same compound, the “Wirkungsgrad gegenüber dem Stand der Technik” value [1] was “überlegene Wirkung gegenüber dem Stand der Technik”.
